Measured values published in US7674819B2 (Warner-Lambert Company LLC, priority 2005, dated 2010).
Read-outs that look alike come from different tables or passages of the source.

Target: T1, hAR (Homo sapiens, UniProt P10275)
T1 sequence (P10275 1-920): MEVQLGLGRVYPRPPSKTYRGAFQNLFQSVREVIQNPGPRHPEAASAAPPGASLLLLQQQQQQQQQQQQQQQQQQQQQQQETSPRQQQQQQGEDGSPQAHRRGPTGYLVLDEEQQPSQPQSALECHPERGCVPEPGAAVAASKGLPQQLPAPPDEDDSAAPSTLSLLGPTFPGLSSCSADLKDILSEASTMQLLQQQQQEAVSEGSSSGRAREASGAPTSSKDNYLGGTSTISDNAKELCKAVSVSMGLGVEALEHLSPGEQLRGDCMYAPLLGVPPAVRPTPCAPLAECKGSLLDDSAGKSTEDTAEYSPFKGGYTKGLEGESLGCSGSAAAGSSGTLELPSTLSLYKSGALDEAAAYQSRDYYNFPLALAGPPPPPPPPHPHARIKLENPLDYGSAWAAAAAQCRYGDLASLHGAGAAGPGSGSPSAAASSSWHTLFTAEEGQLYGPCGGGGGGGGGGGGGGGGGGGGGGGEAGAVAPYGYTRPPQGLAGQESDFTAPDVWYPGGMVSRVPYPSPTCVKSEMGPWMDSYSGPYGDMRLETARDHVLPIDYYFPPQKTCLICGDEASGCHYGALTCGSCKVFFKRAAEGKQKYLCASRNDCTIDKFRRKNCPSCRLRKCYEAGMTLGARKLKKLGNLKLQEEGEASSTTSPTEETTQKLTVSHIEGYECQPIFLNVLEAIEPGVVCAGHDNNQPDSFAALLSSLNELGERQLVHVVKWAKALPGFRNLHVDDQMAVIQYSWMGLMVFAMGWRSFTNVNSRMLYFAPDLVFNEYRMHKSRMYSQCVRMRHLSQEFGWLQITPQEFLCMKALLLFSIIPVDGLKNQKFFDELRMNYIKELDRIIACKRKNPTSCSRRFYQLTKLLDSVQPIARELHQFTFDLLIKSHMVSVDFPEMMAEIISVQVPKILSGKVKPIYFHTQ
Experiment: Competitive binding of 3H-DHT to baculovirus/Sf9 generated hAR extracts
Conditions: one hour at 4° C., mean of multiple tests
Summary of the method: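 Baculovirus/Sf9-expressed hAR extract incubated with test compound, hydroxylapatite and 1 nM 3H-DHT tracer for 1 h at 4° C, then washed free of unbound tracer. Affinity given as concentration inhibiting half of maximal 3H-DHT binding.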

[1] = IC50, concentration at which one half of maximum binding of 1 nM 3H-DHT to hAR is inhibited
[2] = concentration at which one half of maximum binding of 1 nM 3H-DHT to hAR is inhibited, read-out: IC50

Row | Structure (SMILES) | IC50 [1] | IC50 [2]
1 | CC[C@H](C)N1CC(C)(C)[C@@H](Oc2ccc(C#N)c(C(F)(F)F)c2)C1=O [Example 1, (3R,S)-(+)-4-(1-sec-Butyl-4,4-dimethyl-2-oxo-pyrrolidin-3-yloxy)-2-trifluoromethyl-benzonitrile] | 136 nM | 
2 | CCCN1CC(C)(C)[C@@H](Oc2ccc(C#N)c(C(F)(F)F)c2)C1=O [Example 4A, (+)-4-(1-Propyl-4,4-dimethyl-2-oxo-pyrrolidin-3-yloxy)-2-trifluoromethyl-benzonitrile (E2)] | 230 nM | 
3 | CC(c1ccccc1)N1CC(C)(C)C(Oc2ccc(C#N)cc2Cl)C1=O (stereo not shown) [Example 109] |  | 203 nM
4 | CCCS(=O)(=O)N1CC(C)(C)C(Oc2ccc(C#N)c(C(F)(F)F)c2)C1=O (single isomer, unassigned; (+)) [Example 82, (+)-4-[4,4-Dimethyl-2-oxo-1-(propane-1-sulfonyl)-pyrrolidin-3-yloxy]-2-trifluoromethyl-benzonitrile] | 47 nM | 
5 | CCCN1CC(C)(C)C(Oc2ccc(C#N)c(C(F)(F)F)c2)C1=O (stereo not shown) [Example 4, 4-(4,4-dimethyl-2-oxo-1-propyl-pyrrolidin-3-yloxy)-2-trifluoromethyl-benzonitrile] | 188 nM | 
6 | CC1(C)CN(S(C)(=O)=O)C(=O)C1Oc1ccc(C#N)c(C(F)(F)F)c1 (stereo not shown) [Example 81, 4-(1-methanesulfonyl-4,4-dimethyl-2-oxo-pyrrolidin-3-yloxy)-2-trifluoromethyl-benzonitrile] |  | 139 nM
7 | CCCCN1CC(C)(C)C(Oc2ccc(C#N)c(C(F)(F)F)c2)C1=O (single isomer, unassigned; (+)) [Example 20, (+)-4-(1-Butyl-4,4-dimethyl-2-oxo-pyrrolidin-3-yloxy)-2-trifluoromethyl-benzonitrile] | 97 nM | 
